Assay results taken from publication PMC10819430, “Binding Affinity and Mechanism of Six PFAS with Human Serum Albumin: Insights from Multi-Spectroscopy, DFT and Molecular Dynamics Approaches” (Toxics, 2024).
Entries after “also recorded” stand apart in the source; their conditions may differ. Read-outs that look alike come from different tables or passages of the source.

What was measured:
[1] = target: T1, Human Serum Albumin (HSA) (Homo sapiens, UniProt P02768); experiment: Fluorescence quenching of HSA by PFAS (Stern–Volmer, double logarithmic and Van't Hoff analysis); format: binding; conditions: for quenching of HSA fluorescence intensity: PFAS 1.8 × 10^−5 mol·L^−1, HSA 1 × 10^−6 mol·L^−1, 298 K; for ΔH / ΔS: Van't Hoff, 298–310 K; for HSA fluorescence peak position after PFAS addition (blue shift from 337 nm): as the concentration of PFAS increases; for affinity for HSA: fluorescence quenching experiments; for main interaction force from thermodynamic analysis: signs of ΔH and ΔS
T1 construct: HSA (≥96%) and six PFAS were all purchased from Aladdin Chemicals (Shanghai, China); purchased Aladdin Chemicals (Shanghai, China)
Protocol: Fluorescence quenching experiments greatly benefit studies on the interactions between ligands and proteins. Initially, 3 mL of HSA stock solution was put into a 10 mm square quartz cuvette. Following that, PFAS stock solution was gradually added to achieve various final concentrations, namely 0, 3, 6, 9, 12, 15, 18 × 10^−6 mol·L^−1. By incrementally increasing the molar ratio of PFAS vs. HSA up to 18, their binding characteristics can be better investigated.
A thermostat (TR-01A, Bishui Corp, Beijing, China) was used to precisely control the solution temperature, which was set at 298, 304, and 310 K. This device includes a temperature controller and a metal heating cuvette module in conjunction with a fluorometer. This thermostat has a temperature range of 20–60 °C (293–333 K) and an accuracy of 0.1 °C Celsius. This step is critical for keeping the experimental conditions stable. Following that, the samples were fluorescence-scanned with a fluorometer (Cary Eclipse, Agilent, CA, USA). The excitation wavelength was set at 275 nm to efficiently stimulate tryptophan (Trp) and tyrosine (Tyr) residues. Additional test parameters include an emission of 275–500 nm, scanning rate of 1200 nm/min and PTV voltage of 700 v. Fluorescence quenching experiments were repeated three times, and the average values were taken for further calculation.
Fluorescence internal filtration (IFE) refers to the phenomenon where the fluorescence intensity decreases during fluorescence measurement due to the absorption of excitation or emission light by sample components (small molecules or proteins) in solution [19, 20]. This phenomenon is more obvious in the samples with a high concentration of adsorbent. A fluorescence correction formula was used in this study to correct the IFE effect on the data, as follows: Fcorr=Fobs×10^Aex+Aem/2 where Fcorr and Fobs are corrected and observed fluorescence emission intensities, respectively, Aex and Aem are UV-vis absorbances at the excitation and emission wavelengths.
The quenching constant can be calculated using the Stern–Volmer Equation (3). The results are shown in Table 2 and Figure 1: F0/F=1+Kqτ0=1+KsvQ where F0 and F refer to HSA fluorescence intensities without and with the quencher (PFAS solution); Kq is the biomacromolecule’s quenching rate constant; τ0 is the average fluorescence lifetime of the fluorescent molecule when the quencher PFAS is absent, usually taken as 10^−8 s; [Q] is the PFAS concentration; Ksv is the Stern–Volmer quenching constant; F0/F is the vertical axis; the Stern–Volmer curves of this system are 298, 304, and 310 K.
The double logarithmic formula can be used to calculate the binding constants and binding site numbers of HSA–PFAS complexes: logF0−F/F=logKb+nlogQ where F0 and F are parameters representing the initial fluorescence intensity and the fluorescence intensity after adding PFAS, respectively. The binding characteristics are represented by the binding constant, Kb, and the number of binding sites, n. The slope of the straight line is the number of binding sites, n, and the binding constant Kb is obtained from the exponent of the straight line’s intercept using the double logarithmic graph. Figure A2 and Table 2 show the calculation results.
The enthalpy change (∆H), entropy change (∆S), and free energy change (∆G) calculated from the Van’t Hoff equation [50] can be used to determine the type of interaction. lnKb=−ΔH/RT+ΔS/R ΔG=ΔH−TΔS=−RTlnKb where R represents the ideal gas constant (8.314 J·mol^−1·K^−1).

HSA [2] = target: T2, HSA (Homo sapiens, UniProt P02768); experiment: 3D-EEM fluorescence spectra of HSA–PFAS; conditions: for 3D-EEM Peak A Position λex/λem / 3D-EEM Peak B Position λex/λem / 3D-EEM Peak A Intensity F / 3D-EEM Peak B Intensity F: HSA 1 × 10^−6, PFAS 1.8 × 10^−5 mol·L^−1; for 3D-EEM Peak A Intensity F: HSA alone 673.66; for 3D-EEM Peak B Intensity F: HSA alone 996.906
T2 construct: HSA (≥96%) and six PFAS were all purchased from Aladdin Chemicals (Shanghai, China); purchased Aladdin Chemicals (Shanghai, China)
Protocol: The 3D-EEM spectra were recorded using specific scanning parameters at the scanning rate of 2400 nm·min^−1, an […] with 5 nm increments, and an emission of 280–550 nm with 2 nm increments. The concentrations of PFAS and HSA were set at 18 × 10^−6 mol·L^−1 and 1 × 10^−6 mol·L^−1, respectively.

HSA [3] = target: T2, HSA; experiment: Circular dichroism (CD) spectrum, secondary structure of HSA; conditions: HSA:PFAS 1:18, 298 K; for HSA secondary structure: β-Sheet: HSA alone 4.9; for HSA secondary structure: β-Turn: HSA alone 16.9; for HSA secondary structure: Random Coil: HSA alone 36.7; for HSA secondary structure: α-Helix: HSA alone 41.6
Excerpt: CD measurements (190–260 nm) were taken before and after the addition of PFAS to HSA using a J-815 CD spectrometer equipped with a PMT detector (JASCO, Tokyo, Japan). The protein concentration was set at 1 × 10^−6 mol/L, with a fixed HSA-to-PFAS concentration ratio of 1:18. The scanning rate was set to 100 nm/min with 0.5 nm increments, and the photometric mode of HT. Each sample was scanned three times. The blank buffer control was automatically subtracted during the scanning process. All tests were carried out at 298 K. The CONTIN analysis method from the DichroWeb was employed to determine the contents of the protein’s secondary structure.

HSA [4] = target: T2, HSA; experiment: Competitive probe experiment (warfarin, ibuprofen, lidocaine); format: binding
Excerpt: Competitive probe experiments are commonly used to identify specific binding sites in the structure of proteins. Three probe molecules known to bind to distinct binding sites on HSA were selected: warfarin (subdomain IIA), ibuprofen (subdomain IIIA), and lidocaine (subdomain IIB). These probe molecules would compete with PFAS for the same protein sites when binding with HSA. The potential binding sites can be inferred by monitoring and comparing changes in fluorescence intensity when probe molecules are present.

[5] = human body, cited from earlier work

T2 sequence (P02768 25-609): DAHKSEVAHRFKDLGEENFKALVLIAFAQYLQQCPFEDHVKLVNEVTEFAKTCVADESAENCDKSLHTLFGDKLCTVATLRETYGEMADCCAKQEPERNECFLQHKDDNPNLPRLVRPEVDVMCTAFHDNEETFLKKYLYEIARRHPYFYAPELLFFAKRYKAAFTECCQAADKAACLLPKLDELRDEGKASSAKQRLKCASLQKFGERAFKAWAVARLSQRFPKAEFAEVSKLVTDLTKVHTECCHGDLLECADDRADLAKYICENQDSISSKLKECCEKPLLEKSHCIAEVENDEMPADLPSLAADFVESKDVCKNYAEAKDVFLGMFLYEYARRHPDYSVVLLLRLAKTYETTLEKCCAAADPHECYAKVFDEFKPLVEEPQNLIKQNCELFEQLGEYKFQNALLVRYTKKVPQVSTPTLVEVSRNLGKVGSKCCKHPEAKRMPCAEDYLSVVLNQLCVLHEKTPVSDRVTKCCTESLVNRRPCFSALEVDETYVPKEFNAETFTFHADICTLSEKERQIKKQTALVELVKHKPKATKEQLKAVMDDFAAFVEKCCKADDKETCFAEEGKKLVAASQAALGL
T1 sequence (P02768 25-609): as above

SMILES	fluorescence quenching mechanism [1]	quenching of HSA fluorescence intensity [1]	KSV (Stern–Volmer quenching constant) ([1]; T = 298 K)	n (number of binding sites) ([1]; T = 298 K)	ΔG ([1]; T = 298 K)	Kq (quenching rate constant) ([1]; T = 298 K, τ0 taken as 10^−8 s)	KSV (Stern–Volmer quenching constant) ([1]; T = 304 K)	n (number of binding sites) ([1]; T = 304 K)	ΔG ([1]; T = 304 K)	Kq (quenching rate constant) ([1]; T = 304 K, τ0 taken as 10^−8 s)	KSV (Stern–Volmer quenching constant) ([1]; T = 310 K)	n (number of binding sites) ([1]; T = 310 K)	ΔG ([1]; T = 310 K)	Kq (quenching rate constant) ([1]; T = 310 K, τ0 taken as 10^−8 s)	ΔH [1]	ΔS [1]	affinity for HSA [1]	main interaction force from thermodynamic analysis [1]	3D-EEM Peak A Position λex/λem (HSA [2])	3D-EEM Peak B Position λex/λem (HSA [2])	further results
O=C(O)C(F)(F)C(F)(F)C(F)(F)C(F)(F)C(F)(F)C(F)(F)C(F)(F)C(F)(F)F [PFNA, Perfluorononanoic Acid]	static quenching	30.6%	2.52 ± 0.10 × 10^4 L·mol^−1	1.51 ± 0.06	-9.398 kcal/mol	2.52 ± 0.10 × 10^12 L·mol^−1·s^−1	2.35 ± 0.11 × 10^4 L·mol^−1	1.18 ± 0.03	-7.376 kcal/mol	2.35 ± 0.11 × 10^12 L·mol^−1·s^−1	1.27 ± 0.04 × 10^4 L·mol^−1	1.10 ± 0.04	-7.087 kcal/mol	1.27 ± 0.04 × 10^12 L·mol^−1·s^−1	-66.503 ± 1.3 kcal/mol	−805.8 ± 13.8 J·mol^−1·K^−1	high affinity	hydrogen bonds or van der Waals interactions; also recorded: hydrogen bonds or van der Waals forces	280/329	230/310	HSA fluorescence peak position after PFAS addition (blue shift from 337 nm) [1]: 317 nm; 3D-EEM Peak A Intensity F (HSA [2]): 418.74 a.u.; 3D-EEM Peak B Intensity F (HSA [2]): 800.96 a.u.; reduction of 3D-EEM peak A intensity (HSA [2]; after binding with HSA): 37.8%; reduction of 3D-EEM peak B intensity (HSA [2]; after binding with HSA): 19.7%; HSA secondary structure: β-Sheet (HSA [3]): 7.6%; HSA secondary structure: β-Turn (HSA [3]): 15.1%; HSA secondary structure: Random Coil (HSA [3]): 41.2%; HSA secondary structure: α-Helix (HSA [3]): 36.2%; φ (rate of decrease in Kb) (HSA [4]; ibuprofen probe): 13.8%; φ (rate of decrease in Kb) (HSA [4]; lidocaine probe): 43.9%; φ (rate of decrease in Kb) (HSA [4]; warfarin probe): 98.3%
O=C(O)C(F)(F)OC(F)(F)C(F)(F)OC(F)(F)C(F)(F)OC(F)(F)F [PFO3DA, Perfluoro-3,6,9-trioxadecanoic Acid]	static quenching	15.3%	1.05 ± 0.06 × 10^4 L·mol^−1	1.25 ± 0.03	-7.091 kcal/mol	1.05 ± 0.06 × 10^12 L·mol^−1·s^−1	1.03 ± 0.06 × 10^4 L·mol^−1	1.33 ± 0.02	-6.479 kcal/mol	1.03 ± 0.06 × 10^12 L·mol^−1·s^−1	0.87 ± 0.04 × 10^4 L·mol^−1	1.10 ± 0.03	-6.348 kcal/mol	0.87 ± 0.04 × 10^12 L·mol^−1·s^−1	-25.471 ± 0.937 kcal/mol	−259.2 ± 9.4 J·mol^−1·K^−1	high affinity	hydrogen bonds or van der Waals interactions; also recorded: hydrogen bonds or van der Waals forces	280/329	230/325	3D-EEM Peak A Intensity F (HSA [2]): 525.07 a.u.; 3D-EEM Peak B Intensity F (HSA [2]): 886.91 a.u.; HSA secondary structure: β-Sheet (HSA [3]): 5.8%; HSA secondary structure: β-Turn (HSA [3]): 17.3%; HSA secondary structure: Random Coil (HSA [3]): 40.6%; HSA secondary structure: α-Helix (HSA [3]): 36.4%; φ (rate of decrease in Kb) (HSA [4]; ibuprofen probe): 25.8%; φ (rate of decrease in Kb) (HSA [4]; lidocaine probe): 11.8%; φ (rate of decrease in Kb) (HSA [4]; warfarin probe): 95.1%
O=C(O)C(F)(F)C(F)(F)C(F)(F)C(F)(F)C(F)(F)C(F)(F)C(F)(F)F [PFOA, Perfluorooctanoic Acid]	mixed quenching	20.1%	1.39 ± 0.07 × 10^4 L·mol^−1	1.26 ± 0.04	-7.302 kcal/mol	1.39 ± 0.07 × 10^12 L·mol^−1·s^−1	1.46 ± 0.09 × 10^4 L·mol^−1	1.31 ± 0.02	-7.851 kcal/mol	1.46 ± 0.09 × 10^12 L·mol^−1·s^−1	1.47 ± 0.11 × 10^4 L·mol^−1	1.47 ± 0.03	-9.003 kcal/mol	1.47 ± 0.11 × 10^12 L·mol^−1·s^−1	35.057 ± 1.53 kcal/mol	593.3 ± 22.7 J·mol^−1·K^−1	high affinity	hydrophobic interactions	280/336	230/327	Kq (quenching rate constant) ([1]; 298 K): 1.39e+12 L/mol/s; HSA fluorescence peak position after PFAS addition (blue shift from 337 nm) [1]: 320 nm; 3D-EEM Peak A Intensity F (HSA [2]): 476.59 a.u.; 3D-EEM Peak B Intensity F (HSA [2]): 812.58 a.u.; HSA secondary structure: β-Sheet (HSA [3]): 6.4%; HSA secondary structure: β-Turn (HSA [3]): 15.8%; HSA secondary structure: Random Coil (HSA [3]): 40.5%; HSA secondary structure: α-Helix (HSA [3]): 37.2%; φ (rate of decrease in Kb) (HSA [4]; lidocaine probe): 8.1%; φ (rate of decrease in Kb) (HSA [4]; warfarin probe): 96.1%; average half-life ([5]; study on 19 PFAS): approximately 2.47 years; average half-life [5]: 3.8 years
O=S(=O)(O)C(F)(F)C(F)(F)C(F)(F)C(F)(F)C(F)(F)C(F)(F)C(F)(F)C(F)(F)F [PFOS, Perfluorooctanesulfonic acid]																					average half-life ([5]; study on 19 PFAS): ~4.52 years; average half-life [5]: 5.4 years
